From US20110306570A1, “Na/K-Atpase Expression as an Indicator for the Treatment of Cancer” (UNIVERSITY OF TOLEDO, priority 2008, published 2011)
“Also recorded” adds a separate entry of the source.

Legend:
[1] = system: LLC-PK1 cells; experiment: MTT cell growth assay, LLC-PK1 cells; format: cell-based, pig
Experimental: (§1) FIG. 1A: LLC-PK1 cells, BT20 cells, and DU145 cells were subcultured in 96-well plates (10,000 cells/well) and serum starved. […] Cells were solublized by adding 100 μl/well detergent provided by ATCC after 90 min of incubation and OD570 was then measured.
Cell growth was then measured using MTT assay.
(§2) MTT assay for measuring cell proliferation: Cells were sub-cultured in 96 well plates at 10,000 cells/well in 100 μl culture medium. […] Ten μl MTT reagent (3-4,5-dimethylthiazol-2-yl)-2,5-diphenyltetrazolium bromide) was added to each well for 90 min. The formazan crystal was dissolved with detergent and the OD value was measured at 570 nm.

[2] = system: DU145 cells; experiment: MTT cell growth assay, DU145 cells; format: cell-based, human; conditions: 24 h
Experimental: as §1, §2

[3] = system: P-11 cells (control vector-transfected LLC-PK1); experiment: MTT cell growth assay, control P-11 cells; format: cell-based, pig; conditions: ouabain 1 to 10 nM, 16 h
Experimental: as §2

[4] = system: PY-17 cells; experiment: MTT cell growth assay, Na/K-ATPase knock-down PY-17 cells; format: cell-based, pig
Experimental: FIG. 3B: The Na/K-ATPase knock-down cells (PY17) were treated with different digitalis compounds and the cell growth was measured by MTT assay.
as §2

[5] = system: LLC-PK1 cells; experiment: Cell growth curve (cell counting), LLC-PK1 cells; format: cell-based, pig; conditions: 10 and 50 nM ouabain
Experimental: FIG. 1B: The above three cell lines were subcultured in 12-well plates (50,000 cells/well) and serum starved.
Cell growth curve and cell cycle measurement: Cells were sub-cultured in 12 well plates at 50,000/well in 1 ml culture medium for 24 h. […] At each indicated time point, three wells of control or treated cells were trypsinized and counted. For cell cycle measurement, cells were trypsinized and re-suspended in Citrate buffer (8.55% sucrose, 1.18% Na citrated, 5% DMSO, pH 7.6), and stained with propidium iodide (PI). The stained cells were then analyzed by Flow Cytometry.

[6] = molecular target: T1, Na/K-ATPase in the plasma membrane (Sus scrofa, UniProt P05024); experiment: 3H-ouabain binding after ouabain pre-treatment, LLC-PK1 cells; format: cell-based, pig; conditions: ouabain up to 10 nM, 72 h
T1 construct: endogenous in cells; host or cells: LLC-PK1 (intact cells)
Experimental: (§3) The cells were washed and 3H-ouabain were performed as described herein. * p<0.05, ** p<0.01
(§4) To assess the functional consequence of these changes in α1 expression, the inventors measured the number of functional Na/K-ATPase in the plasma membrane.
(§5) Afterwards, cells were washed with serum-free medium and subjected to 3H-ouabain binding assay. Briefly, cells were incubated in K+-free Kreb's solution (NaCl 137 mM; KCl 0 mM; CaCl2 2.8 mM; NaH2PO4 0.6 mM; MgSO4 1.2 mM; dextrose; 10 mM; Tris 15 mM; pH7.4) for 15 min, and then exposed to 100 nM 3H-ouabain for 30 min at 37° C. At the end of incubation, the cells were washed 3 times with ice-cold K+-free Kreb's solution, solubilized in 0.1M NaOH-0.2% SDS, and counted in a scintillation counter for 3H-ouabain. […] Paralleled plates were used for counting cell numbers. 3H-ouabain binding data were calculated as binding sites per cell.

[7] = molecular target: T2, Na/K-ATPase α1 (Sus scrofa, UniProt P05024); experiment: Na/K-ATPase α1 degradation with cycloheximide, LLC-PK1 cells; format: cell-based, pig; conditions: cycloheximide pre-treatment, 10 nM ouabain for 6, 16 and 24 h
T2 construct: endogenous in cells; host or cells: LLC-PK1 (ATCC) and its caveolin-1 knock-down line C2-9
Description: Cells without any treatment or only treated with CHX were used as control. The cells were collected at different time points and lysed in RIPA buffer. Equal amount of protein was loaded to analyze the Na/K-ATPase by Western blot. The representative Western blot and the quantification data from 4 experiments were shown. The Na/K-ATPase α1 amount at each time point was normalized against the control at the same time point.

[8] = system: Akt; experiment: Akt phosphorylation (pAkt) by Western blot, LLC-PK1 cells; format: cell-based, pig; conditions: ouabain 15 min
[9] = system: Akt; experiment: Akt phosphorylation (pAkt) by Western blot, DU145 cells; format: cell-based, human; conditions: ouabain 15 min
Description: The pAkt was probed by Western blot.

[10] = system: Akt; experiment: Akt phosphorylation (pAkt) by Western blot, C2-9 cells; format: cell-based, pig; conditions: ouabain 15 min
Experimental: The cell lysates were analyzed for pAkt.

[11] = molecular target: T3, Na/K-ATPase in the plasma membrane (Homo sapiens, UniProt P05023); experiment: 3H-ouabain binding after ouabain pre-treatment, DU145 cells; format: cell-based; set-up: endogenous in cells; conditions: ouabain 72 h
Experimental: as §3, §4, §5

[12] = molecular target: T4, Na/K-ATPase α1 (Homo sapiens, UniProt P05023); experiment: Na/K-ATPase α1 endocytosis by confocal immunostaining, DU145 cells; format: cell-based; set-up: endogenous in cells; host or cells: DU145; conditions: 10 nM ouabain
Experimental: Na/K-ATPase al was immunostained and visualized using Leica confocal microscope. The red arrows indicate the endocytosed vesicles containing Na/K-ATPase α1.
The cells were fixed with ice-cold methanol for 15 min and blocked with Signal Enhancer from Invitrogen. Monoclonal anti-Na/K-ATPase α1 antibody was then incubated with the cells overnight at 4° C. After 3 washes, a secondary Alexa 488-conjugated anti-mouse antibody was added and incubated for 2 h at room temperature. The coverslip was washed, mounted and imaged using a Leica confocal microscope.

[13] = molecular target: T4, Na/K-ATPase α1; experiment: Na/K-ATPase α1 expression, MDA-MB-435s cells; format: cell-based; set-up: endogenous in cells; host or cells: MDA-MB-435s; conditions: 5 nM ouabain, 24 h, N=3, P<0.05
Description: A significant reduction in α1 expression was detected (82±2% of control, N=3, P<0.05). Thus, ouabain-induced changes in α1 expression are clearly correlated with its effects on cell growth.

[14] = molecular target: T3, Na/K-ATPase in the plasma membrane; experiment: 3H-ouabain binding after ouabain pre-treatment, BT20 cells; format: cell-based; set-up: endogenous in cells; host or cells: BT20 (intact cells); conditions: ouabain 72 h
Experimental: as §3, §4, §5

[15] = molecular target: T4, Na/K-ATPase α1; experiment: Na/K-ATPase α1 expression by Western blot, DU145 cells; format: cell-based; set-up: endogenous in cells; host or cells: BT20, DU145, MDA-MB-435s; conditions: ouabain 24 h or 72 h exposure

C[C@@H]1O[C@@H](O[C@H]2C[C@@H](O)[C@]3(CO)[C@H]4[C@H](O)C[C@]5(C)[C@@H](C6=CC(=O)OC6)CC[C@]5(O)[C@@H]4CC[C@]3(O)C2)[C@H](O)[C@H](O)[C@H]1O [ouabain]
cell growth with ouabain in rapamycin pre-treated cells (MTT) ([1]; LLC-PK1 cells pre-treated with rapamycin, 10 nM ouabain): significant inhibition of cell growth; also recorded: significant inhibition of cell proliferation
effect on cell growth (MTT) ([1]; LLC-PK1 cells, ouabain 1 to 50 nM, 24 h): stimulated cell growth
effect on cell growth (MTT) ([2]; 10-50 nM ouabain): significant inhibition of cell growth
stimulatory effect on cell growth (MTT) ([2]; different concentrations of ouabain): failed to detect any stimulatory effect
effect on cell growth (MTT) [3]: stimulated the cell growth
growth stimulation (MTT) ([4]; PY17 cells, ouabain, 16 h): No growth stimulation was detected
reduction in cell growth (MTT) ([4]; PY-17 cells, 10 nM ouabain): more than 30%
cell number as a function of time [5]: increased the number of LLC-PK1 cells in a time-dependent manner
number of 3H-ouabain binding sites (functional plasma membrane Na/K-ATPase) [6]: barely changed the number of binding sites
degradation of Na/K-ATPase α1 subunit [7]: more degradation of al subunit; also recorded: more degradation of the a1 subunit
Akt phosphorylation [8]: stimulated Akt phosphorylation
Akt phosphorylation [9]: failed to do so
Akt stimulation (pAkt) [10]: failed to stimulate Akt
surface active Na/K-ATPase (3H-ouabain binding) [11]: significant decrease in surface active Na/K-ATPase
endocytosis of Na/K-ATPase α1 (α1-positive vesicles) [12]: many al-positive vesicles were accumulated
Na/K-ATPase α1 expression [13]: 82±2 % of control
surface active Na/K-ATPase (3H-ouabain binding) [14]: significant decrease in surface active Na/K-ATPase
cellular amount of Na/K-ATPase α1 [15]: reduced the cellular amount of α1
